Reference: article PMC7894523 (Chemistry (Weinheim an Der Bergstrasse, Germany), 2020)

Biological target: T1, 15N-labeled carbohydrate recognition domain (CRD) of DC-SIGN (Homo sapiens, UniProt Q9NNX6)
T1 sequence (Q9NNX6 250-404 limits assumed): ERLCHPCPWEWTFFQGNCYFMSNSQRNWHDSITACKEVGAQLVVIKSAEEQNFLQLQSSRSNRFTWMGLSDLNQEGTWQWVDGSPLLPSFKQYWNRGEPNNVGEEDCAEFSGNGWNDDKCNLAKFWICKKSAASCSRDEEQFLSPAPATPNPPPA
Experiment: 1H-15N HSQC titration, chemical shift perturbation
Assay type: binding

Kd: 1.5 ± 0.4 mM
Compound: CC(=O)N[C@H]1[C@H](O[C@H]2[C@H](O[C@@H]3O[C@@H](C)[C@@H](O)[C@@H](O)[C@@H]3O)[C@@H](NC(C)=O)[C@H](OCCCCCN)O[C@@H]2CO)O[C@H](CO)[C@H](O)[C@@H]1O [compound 12, LDN-F]
